Measured values reported in US7132504B2, “Hepatitis C virus inhibitors” (Bristol-Myers Squibb Company, priority 2003, dated 2006).

Columns and labels:
[1] = biological target: T1, HCV NS3/4A protease complex (UniProt P27958, C1454S/C1711G, species not given); test: Recombinant HCV NS3/4A protease complex FRET peptide assay (strain not stated); type: biochemical; details: NS3/4A protease enzyme assay, read-out: Activity Range IC50
T1 construct: fused on or other part: Three-lysine solubilising tail at the C-terminus of NS4A
Description: (§1) The purpose of this in vitro assay was to measure the inhibition of HCV NS3 protease complexes, derived from the BMS strain, H77 strain or J416S strain, as described below, by compounds of the present invention. This assay provides an indication of how effective compounds of the present invention would be in inhibiting HCV proteolytic activity.
Serum from an HCV-infected patient was obtained from Dr. T. Wright, San Francisco Hospital. An engineered full-length cDNA (compliment deoxyribonucleic acid) template of the HCV genome (BMS strain) was constructed from DNA fragments obtained by reverse transcription-PCR (RT-PCR) of serum RNA (ribonucleic acid) and using primers selected on the basis of homology between other genotype 1a strains. From the determination of the entire genome sequence, a genotype 1a was assigned to the HCV isolate according to the classification of Simmonds et al. (See P Simmonds, K A Rose, S Graham, S W Chan, F McOmish, B C Dow, E A Follett, P L Yap and H Marsden, J. Clin. Microbiol., 31(6), 1493–1503 (1993)). […] The infectious clones, H77 (1a genotype) and J4L6S (1b genotype) were obtained from R. Purcell (NIH) and the sequences are published in Genbank (AAB67036, see Yanagi, M., Purcell, R. H., Emerson, S. U. and Bukh, J. Proc. Natl. Acad. Sci. U.S.A. 94(16), 8738–8743 (1997); AF054247, see Yanagi, M., St Claire, M., Shapiro, M., Emerson, S. U., Purcell, R. H. and Bukh, J, Virology 244 (1), 161–172. (1998)).
The H77 and J4L6S strains were used for production of recombinant NS3/4A protease complexes. DNA encoding the recombinant HCV NS3/4A protease complex (amino acids 1027 to 1711) for these strains were manipulated as described by P. Gallinari et al. (see Gallinari P, Paolini C, Brennan D, Nardi C, Steinkuhler C, De Francesco R. Biochemistry. 38(17):5620–32, (1999)). Briefly, a three-lysine solubilizing tail was added at the 3′-end of the NS4A coding region. The cysteine in the P1 position of the NS4A–NS4B cleavage site (amino acid 1711) was changed to a glycine to avoid the proteolytic cleavage of the lysine tag. Furthermore, a cysteine to serine mutation was introduced by PCR at amino acid position 1454 to prevent the autolytic cleavage in the NS3 helicase domain. The variant DNA fragment was cloned in the pET21b bacterial expression vector (Novagen) and the NS3/4A complex was expressed in Escherichia. coli strain BL21 (DE3) (Invitrogen) following the protocol described by P. Gallinari et al. (see Gallinari P, Brennan D, Nardi C, Brunetti M, Tomei L, Steinkuhler C, De Francesco R., J Virol. 72(8):6758–69 (1998)) with modifications. Briefly, the NS3/4A protease complex expression was induced with 0.5 millimolar (mM) Isopropyl β-D-1-thiogalactopyranoside (IPTG) for 22 hours (h) at 20° C. A typical fermentation (1 Liter (L)) yielded approximately 10 grams (g) of wet cell paste. The cells were resuspended in lysis buffer (10 mL/g) consisting of 25 mM N-(2-Hydroxyethyl)Piperazine-N′-(2-Ethane Sulfonic acid) (HEPES), pH 7.5, 20% glycerol, 500 mM Sodium Chloride (NaCl), 0.5% Triton X-100, 1 microgram/milliliter (“μg/mL”) lysozyme, 5 mM Magnesium Chloride (MgCl2), 1 μg/ml Dnasel, 5 mM β-Mercaptoethanol (βME), Protease inhibitor—Ethylenediamine Tetraacetic acid (EDTA) free (Roche), homogenized and incubated for 20 minutes (min) at 4° C. The homogenate was sonicated and clarified by ultra-centrifugation at 235000 g for 1 h at 4° C. Imidazole was added to the supernatant to a final concentration of 15 mM and the pH adjusted to 8.0. The crude protein extract was loaded on a Nickel—Nitrilotriacetic acid (Ni-NTA) column pre-equilibrated with buffer B (25 mM HEPES, pH 8.0, 20% glycerol, 500 mM NaCl, 0.5% Triton X-100, 15 mM imidazole, 5 mM βME). The sample was loaded at a flow rate of 1 mL/min. The column was washed with 15 column volumes of buffer C (same as buffer B except with 0.2% Triton X-100). The protein was eluted with 5 column volumes of buffer D (same as buffer C except with 200 mM Imidazole). […]

[2] = biological target: T2, NS3/4A protease complex, J4L6S strain (Hepatitis C virus genotype 1b, UniProt O92972, C1454S/C1711G); test: Recombinant HCV NS3/4A protease complex FRET peptide assay, J4L6S strain; type: biochemical, HCV genotype 1b (J4L6S)
T2 construct: DNA encoding the recombinant HCV NS3/4A protease complex (amino acids 1027 to 1711) for these strains; inferred from pET21b vector and Ni-NTA purification; made in house; host or cells: Escherichia coli BL21 (DE3), pET21b
T2 sequence (O92972 1027-1711 C1454S/C1711G, one chain of several): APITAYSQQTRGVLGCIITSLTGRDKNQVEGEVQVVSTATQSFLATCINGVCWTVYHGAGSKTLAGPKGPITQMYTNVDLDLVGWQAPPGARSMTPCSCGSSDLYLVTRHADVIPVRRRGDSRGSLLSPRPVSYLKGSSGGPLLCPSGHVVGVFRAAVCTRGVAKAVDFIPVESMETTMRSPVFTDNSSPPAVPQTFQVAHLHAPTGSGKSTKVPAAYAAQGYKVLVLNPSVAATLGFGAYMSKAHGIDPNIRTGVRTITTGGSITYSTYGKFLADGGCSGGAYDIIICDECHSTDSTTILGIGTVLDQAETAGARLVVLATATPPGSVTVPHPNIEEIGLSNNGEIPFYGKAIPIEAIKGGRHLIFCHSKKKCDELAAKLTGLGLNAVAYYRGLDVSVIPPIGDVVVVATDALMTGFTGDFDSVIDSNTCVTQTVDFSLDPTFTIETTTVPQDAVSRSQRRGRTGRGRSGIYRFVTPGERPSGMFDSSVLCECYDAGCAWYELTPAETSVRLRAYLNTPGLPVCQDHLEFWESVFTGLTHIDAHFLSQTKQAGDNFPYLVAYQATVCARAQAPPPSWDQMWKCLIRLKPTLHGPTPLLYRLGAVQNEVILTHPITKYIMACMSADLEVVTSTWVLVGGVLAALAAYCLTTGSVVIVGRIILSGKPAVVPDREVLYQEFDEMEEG
Description: as §1
Serum from an HCV-infected patient was obtained from Dr. T. Wright, San Francisco Hospital. An engineered full-length cDNA (compliment deoxyribonucleic acid) template of the HCV genome (BMS strain) was constructed from DNA fragments obtained by reverse transcription-PCR (RT-PCR) of serum RNA (ribonucleic acid) and using primers selected on the basis of homology between other genotype 1a strains. From the determination of the entire genome sequence, a genotype 1a was assigned to the HCV isolate according to the classification of Simmonds et al. (See P Simmonds, K A Rose, S Graham, S W Chan, F McOmish, B C Dow, E A Follett, P L Yap and H Marsden, J. Clin. Microbiol., 31(6), 1493–1503 (1993)). […]

[3] = system: human pancreatic chymotrypsin; test: Specificity assay, chymotrypsin; type: biochemical; details: 2 h enzyme-inhibitor pre-incubation
Method: The specificities of compounds of the present invention were determined against a variety of serine proteases: human neutrophil elastase (HNE), porcine pancreatic elastase (PPE) and human pancreatic chymotrypsin and one cysteine protease: human liver cathepsin B. In all cases a 96-well plate format protocol using colorimetric p-nitroaniline (pNA) substrate specific for each enzyme was used as described previously (PCT Patent Application No. WO 00/09543) with some modifications to the serine protease assays. All enzymes were purchased from Sigma while the substrates were from Bachem.
Each assay included a 2 h enzyme-inhibitor pre-incubation at room temperature followed by addition of substrate and hydrolysis to ˜30% conversion as measured on a Spectramax Pro microplate reader. Compound concentrations varied from 100 to 0.4 μM depending on their potency. […]
The percentage of inhibition was calculated using the formula: [1−((UVinh−UVblank)/(UVctl−UVblank))]×100 […]

Structure (SMILES): C=CC1C[C@]1(NC(=O)[C@@H]1C[C@@H](Oc2cc(-c3ccccc3)nc3cc(OC)ccc23)CN1C(=O)[C@@H](NC(=O)OC)C(C)(C)C)C(=O)NS(=O)(=O)N(C)Cc1ccccc1 (stereo partly drawn) [Compound 9]
- IC50 [1]: < 150 nM
- IC50 [2]: 41 nM
- IC50 [3]: > 200 µM
